Data as given in PMC3574223 (Bioorganic & medicinal chemistry, 2013).

System: human aortic smooth muscle cells (HASMCs)
Assay: Intracellular NO determination using DAF-FM DA
Type: cell-based
Conditions: increasing ABH concentrations 1 µM-5 mM

SMILES: N[C@@H](CCCCB(O)O)C(=O)O [ABH, S-2-amino-6-boronic acid]
- intracellular NO and/or N2O3 (DAF-FM DA fluorescence): the amount of intracellular NO rises with increasing concentrations of ABH
